pEC50, pKd, pKi: −log10 of the molar value. Peptide text beside a SMILES is read from it.

Assay [1] has as its target T1, rat GALR1 receptor (Rattus norvegicus, UniProt Q62805).
T1 sequence (Q62805 1-346): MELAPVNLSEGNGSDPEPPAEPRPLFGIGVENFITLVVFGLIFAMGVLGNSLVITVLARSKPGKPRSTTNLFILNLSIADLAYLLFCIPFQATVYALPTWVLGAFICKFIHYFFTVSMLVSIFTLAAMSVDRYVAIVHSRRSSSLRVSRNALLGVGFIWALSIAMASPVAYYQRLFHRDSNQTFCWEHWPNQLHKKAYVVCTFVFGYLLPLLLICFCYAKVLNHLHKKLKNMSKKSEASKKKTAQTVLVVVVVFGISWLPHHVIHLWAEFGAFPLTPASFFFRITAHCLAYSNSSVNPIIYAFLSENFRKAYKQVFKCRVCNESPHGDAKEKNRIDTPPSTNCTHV
The assay is described as follows: biochemical.

For assay [2], the target named is T1, rat GALR1 receptor. Format: cell-based. The arrangement: expressed in transfected cells; host or cells: COS-7 (transient). The following applies: for fold less potent than porcine galanin in the rat GalR1 cAMP assay: LM(tk-) rat GALR1. In general terms: Changes in cAMP serve as a functional read-out for many G protein-coupled receptors.
Assay [3] has as its target T2, rat GALR2 receptor (Rattus norvegicus, UniProt O08726).
T2 sequence (O08726 1-372): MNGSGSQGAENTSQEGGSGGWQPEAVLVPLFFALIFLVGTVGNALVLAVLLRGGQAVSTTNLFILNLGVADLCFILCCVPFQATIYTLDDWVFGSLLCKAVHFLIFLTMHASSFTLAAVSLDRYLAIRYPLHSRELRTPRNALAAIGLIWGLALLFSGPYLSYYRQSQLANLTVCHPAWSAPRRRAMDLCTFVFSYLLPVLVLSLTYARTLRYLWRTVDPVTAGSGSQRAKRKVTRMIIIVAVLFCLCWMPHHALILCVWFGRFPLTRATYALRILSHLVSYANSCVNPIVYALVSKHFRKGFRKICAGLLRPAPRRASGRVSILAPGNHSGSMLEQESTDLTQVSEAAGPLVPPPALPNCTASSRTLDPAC
The assay is described as follows: arachidonic acid release in CHO cells stably transfected with rat GALR2 (C-rGalR2-79). The arrangement: expressed in transfected cells. Format: cell-based.
Description: The labeled cells were washed three times with 200 ul HAM's F-12. The wells were then filled with medium (200 uL) and the assay was initiated with the addition of peptides or buffer (22 uL). Cells were incubated for 30 min at 37° C., 5% CO2. Supernatants were transferred to a microtiter plate and evaporated to dryness at 75° C. in a vacuum oven. Samples were then dissolved and resuspended in 25 uL distilled water. Scintillant (300 uL) was added to each well and samples were counted for ^3H in a Trilux plate reader. Data were analyzed using nonlinear regression and statistical techniques available in the GraphPAD Prism package (San Diego, Calif.).

For another assay, the target named is T3, human GALR2 receptor (Homo sapiens, UniProt O43603).
T3 construct: To obtain a full-length hGALR2 clone, superpools of a human heart cDNA library were screened by PCR; expressed in transfected cells
T3 sequence (O43603 1-387): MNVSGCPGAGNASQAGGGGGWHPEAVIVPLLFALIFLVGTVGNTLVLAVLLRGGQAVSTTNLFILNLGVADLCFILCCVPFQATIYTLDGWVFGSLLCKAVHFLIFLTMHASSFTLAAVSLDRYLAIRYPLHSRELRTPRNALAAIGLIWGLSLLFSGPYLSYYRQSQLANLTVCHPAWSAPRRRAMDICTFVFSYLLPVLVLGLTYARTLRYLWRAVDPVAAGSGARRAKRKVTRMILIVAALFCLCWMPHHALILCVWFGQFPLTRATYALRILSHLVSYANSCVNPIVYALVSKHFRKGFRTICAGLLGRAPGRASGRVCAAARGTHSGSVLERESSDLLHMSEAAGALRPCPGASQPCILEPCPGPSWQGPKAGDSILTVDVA
The assay is described as follows: MAP kinase phosphorylation (western blot) in CHO cells expressing human GALR2. The assay is classed as cell-based. The following applies: CHO human GALR2, 10 minutes, human galanin (10 μM). How it is done:
(§1) CHO cells expressing either the rat GALR2 receptor or the human GALR2 receptor were plated at ˜50% confluence into well-plates and grown in culture with fetal bovine serum reduced to 0.5% for 2 days. Fresh medium was exchanged for old and then aspirated after 2 hrs. […] Cells were washed with phosphate buffered saline and lysed in 100 uL Laemmli sample buffer (Bio-Rad) containing 5% β-mercaptoethanol. Cell lysate was scraped off the plate, transferred to a microfuge tube on ice, and sonicated for 10-15 seconds. Samples were heated at 100° C. for 3-5 minutes. Insoluble material was collected by centrifugation at 10,000×g for 5 min. Supernatant (20 μL/lane) was loaded onto a 4-20% polyacrylamide Bio-Rad Ready-Gel (10×10 cm) together with a phospho-MAP kinase protein standard (New England BioLabs) and molecular weight markers. […] The phospho-MAP kinase complex was detected by chemiluminescence using Lumiglow reagent (New England BioLabs) and Kodak X-Omat film, with exposure times ranging from 10 to 120 seconds.
(§2) Another functional assay relies on the fact that MAP kinase phosphorylation precedes the activation of phospholipase A2. We tested whether galanin-dependent activation of GALR2 could be monitored by changes in MAP kinase phosphorylation. […]
A general note: In western blotting, separated proteins are transferred to a membrane and probed.

Assay [4] deals with T2, rat GALR2 receptor. The assay can be described thus: MAP kinase phosphorylation (western blot) in CHO cells expressing rat GALR2. Also noted: expressed in transfected cells. The assay is classed as cell-based. The following applies: CHO rat GALR2, 10 minutes, human galanin (10 μM). How it is done:
as §1, §2

Assay [5] relates to galanin binding sites in brain, spinal cord, pancreatic islets and cell lines, gastrointestinal smooth muscle. The following applies: read-out: affinity of high-affinity galanin binding sites; several mammalian species and tissues; cited from earlier work.
For assay [6], the system named is [125I]galanin binding sites in rat brain. The assay is described as follows: galanin receptor autoradiography, displacement of [125I]galanin from rat brain tissue sections. The following applies: 5 μM.
Description: Male Sprague-Dawley rats (Charles River, Wilmington, Mass.) were euthanized using CO2, decapitated, and their brains immediately removed and frozen on dry ice. Tissue sections were cut at 20 μm using a cryostat and thaw mounted onto gelatin coated slides. Tissues were preincubated in two 10 minute changes of 50 mM Tris-HCl buffer pH 7.4, containing 5 mM MgSO4 and 2 mM EGTA (Sigma). […] After incubation, tissues were dipped twice in ice-cold Tris-HCl buffer (40° C.), followed by a 5 minute wash in ice-cold Tris-HCl buffer (4° C.), then dipped twice in ice-cold deionized water to remove the salts. Sections were placed in X-ray cassettes and apposed to Dupont Cronex MRF 34 Film for 5 days. Films were developed using a Kodak M35A Processor.
The target in assay [7] is T2, rat GALR2 receptor. The assay can be described thus: voltage clamp currents in Xenopus oocytes injected with rGalR2 mRNA. Format: cell-based. Also noted: expressed in transfected cells. The following applies: 100-1000 nM, oocytes injected with 5-50 pg rGalR2 mRNA, holding potential -80 mV.
Assay [8] concerns the target T2, rat GALR2 receptor. The assay is described as follows: GTPgamma35S binding to membranes of cells transfected with rat GalR2. The following applies: 1 μM peptide, n=3. Also noted: expressed in transfected cells. The assay is classed as biochemical. Here is the method:
Membranes from cells transfected with the rat GalR2 receptor were suspended in assay buffer (50 mM Tris, 100 mM NaCl, 5 mM MgCl2, pH 7.4) supplemented with 0.1% BSA, 0.1% bacitracin and 10 μM GDP. Membranes were incubated on ice for 20 minutes, transferred to a 96-well Millipore microtiter GF/C filter plate and mixed with GTPγ^35S (250,000 cpm/sample, specific activity ˜1000 Ci/mmol) plus or minus GTPγS (final concentration=100 μM). Final membrane protein concentration=90 μg/mL. […] Samples collected in the filter plate were treated with scintillant and counted for ^35S in a Trilux (Wallac) liquid scintillation counter.
The signal transduction pathway outlined for rat GalR2 allows for the development of functional assays other than inositol phosphate, calcium, and arachidonic acid determination. One such assay relies on the fact that binding of GTP to a G-protein precedes agonist-dependent activation of phospholipase C. we examined whether galanin-dependent activation of GALR2 could be monitored by the binding of GTPγ^35S to membranes from stably transfected cells.
A general note: GTPγS resists hydrolysis and so accumulates on activated G proteins.

The target in assay [9] is T2, rat GALR2 receptor. The assay is described as follows: intracellular calcium mobilization (Fura-2) in cells transfected with rat GALR2. The arrangement: expressed in transfected cells. Format: cell-based. How it is done: The intracellular free calcium concentration may be measured by microspectroflourometry using the fluorescent indicator dye Fura-2/AM (Bush et al. 1991). Stably transfected cells are seeded onto a 35 mm culture dish containing a glass coverslip insert. Cells are washed with HBS and loaded with 100 μL of Fura-2/AM (10 μM) for 20 to 40 min. After washing with HBS to remove the Fura-2/AM solution, cells are equilibrated in HBS for 10 to 20 min. Cells are then visualized under the 40× objective of a Leitz Fluovert FS microscope and fluorescence emission is determined at 510 nm with excitation wavelengths alternating between […]. Raw fluorescence data are converted to calcium concentrations using standard calcium concentration curves and software analysis techniques.

Regarding `CC(C)C[C@H](NC(=O)[C@H](CC(C)C)NC(=O)[C@@H](Cc1c[nH]c2ccccc12)NC(=O)[C@H](Cc1ccccc1)NC(=O)[C@@H](Cc1c[nH]c2ccccc12)NC(=O)[C@H](CCC(N)=O)NC(=O)[C@H](CCC(N)=O)NC(=O)[C@@H]1CCCN1C(=O)[C@H](CCCCN)NC(=O)[C@@H]1CCCN1C(=O)[C@@H](CCCNC(=N)N)NC(=O)[C@@H]1CCCN1C(=O)CNC(=O)[C@H](CC(C)C)NC(=O)[C@H](CC(C)C)NC(=O)[C@H](Cc1ccc(O)cc1)NC(=O)CNC(=O)[C@H](C)NC(=O)[C@H](CO)NC(=O)[C@H](CC(N)=O)NC(=O)[C@H](CC(C)C)NC(=O)[C@@H](NC(=O)[C@H](Cc1c[nH]c2ccccc12)NC(=O)CN)[C@@H](C)O)C(N)=O` [Peptide C7, C7] (HELM PEPTIDE1{G.W.T.L.N.S.A.G.Y.L.L.G.P.[dR].P.K.P.Q.Q.[dW].F.[dW].L.L.[am]}$$$$V2.0; N-terminus and C-terminus assumed), at rat GALR1 receptor [1], the pKi (commonly the negative decadic logarithm of the Ki, by convention in mol/L) is 7.79. In addition, the pEC50 (commonly the negative decadic logarithm of the EC50, by convention in mol/L) on rat GALR1 receptor [2] (read-out: LM(tk-) Rat GALR1 cAMP assay EC50) is 9.28.
As for `CC[C@H](C)[C@H](NC(=O)[C@H](C)NC(=O)[C@H](Cc1c[nH]cn1)NC(=O)[C@@H]1CCCN1C(=O)CNC(=O)[C@H](CC(C)C)NC(=O)[C@H](CC(C)C)NC(=O)[C@H](Cc1ccc(O)cc1)NC(=O)CNC(=O)[C@H](C)NC(=O)[C@H](CO)NC(=O)[C@H](CC(N)=O)NC(=O)[C@H](CC(C)C)NC(=O)[C@@H](NC(=O)[C@H](Cc1c[nH]c2ccccc12)NC(=O)CNC(=O)[C@H](CCCNC(=N)N)NC(=O)[C@H](CCCCN)NC(=O)[C@H](CCC(=O)O)NC(=O)[C@H](CCCCN)NC(=O)[C@@H](NC(=O)[C@@H]1CCCN1C(=O)[C@@H](N)CO)C(C)C)[C@@H](C)O)C(=O)N[C@@H](CC(=O)O)C(=O)N[C@@H](CC(N)=O)C(=O)N[C@@H](Cc1c[nH]cn1)C(=O)N[C@@H](CCCNC(=N)N)C(=O)N[C@@H](CO)C(=O)N[C@@H](Cc1ccccc1)C(=O)N[C@@H](Cc1c[nH]cn1)C(=O)N[C@@H](CC(=O)O)C(=O)N[C@@H](CCCCN)C(=O)N[C@@H](Cc1ccc(O)cc1)C(=O)NCC(=O)N[C@@H](CC(C)C)C(=O)N[C@@H](C)C(N)=O` [porcine galanin (−7) to (+29)], on rat GALR2 receptor [3], the “fold less potent than porcine galanin in the rat GalR2 arachidonic acid assay” value is on record as 3 fold. Moreover, the “fold less potent than porcine galanin in the rat GalR1 cAMP assay” value on rat GALR1 receptor [2] turned out to be 350 fold.
For `CC[C@H](C)[C@H](NC(=O)[C@H](C)NC(=O)[C@H](Cc1c[nH]cn1)NC(=O)[C@@H]1CCCN1C(=O)CNC(=O)[C@H](CC(C)C)NC(=O)[C@H](CC(C)C)NC(=O)[C@H](Cc1ccc(O)cc1)NC(=O)CNC(=O)[C@H](C)NC(=O)[C@H](CO)NC(=O)[C@H](CC(N)=O)NC(=O)[C@H](CC(C)C)NC(=O)[C@@H](NC(=O)[C@H](Cc1c[nH]c2ccccc12)NC(=O)CNC(=O)[C@H](CCCNC(=N)N)NC(=O)[C@H](CCCCN)NC(=O)[C@H](CCC(=O)O)NC(=O)[C@H](CCCCN)NC(=O)[C@@H](NC(=O)[C@@H]1CCCN1C(=O)[C@H](CO)NC(=O)CNC(=O)[C@@H](N)CC(C)C)C(C)C)[C@@H](C)O)C(=O)N[C@@H](CC(=O)O)C(=O)N[C@@H](CC(N)=O)C(=O)N[C@@H](Cc1c[nH]cn1)C(=O)N[C@@H](CCCNC(=N)N)C(=O)N[C@@H](CO)C(=O)N[C@@H](Cc1ccccc1)C(=O)N[C@@H](Cc1c[nH]cn1)C(=O)N[C@@H](CC(=O)O)C(=O)N[C@@H](CCCCN)C(=O)N[C@@H](Cc1ccc(O)cc1)C(=O)NCC(=O)N[C@@H](CC(C)C)C(=O)N[C@@H](C)C(N)=O` [porcine galanin (−9) to (+29)] the same measures were 2 fold and 400 fold.
Regarding Human galanin, the “phosphorylated MAP kinase levels” value at human GALR2 receptor and on rat GALR2 receptor [4] was “increase” each time.
With [^125I]porcine galanin, the pKd in assay [5] was 9.00 to 9.30.
Consider porcine galanin (1-29), for which the “displacement of [125I]galanin binding from rat brain tissue sections” value in assay [6] was “complete displacement”. Also, on rat GALR2 receptor [7], the “activation of rapid inward currents (oocytes responding)” value is listed as 36 of 46. Besides, the “binding of GTPγ35S in presence of peptide” value is 10,292±104 cpm on rat GALR2 receptor [8] (C-rGALR2-79 membranes, without peptide 8,014±113 cpm) and 29,011±526 cpm at rat GALR2 receptor [8] (L-rGalR2I-4 membranes (intronless), without peptide 27,545±504 cpm). Further, the “effect on intracellular calcium levels” value at rat GALR2 receptor [9] (COS-7 cells transfected with rat GALR2 cDNA) is reported as “no effect”.
Turning to rat galanin, the “increase of intracellular free [Ca+2] (Δ[Ca+2])” value at rat GALR2 receptor [9] (1 μM peptide, C-rGALR2-79, n=9, not in untransfected cells) amounted to 310 ± 70 nM.
